Test results taken from ChEMBL document CHEMBL4507282, “Data for DCP probe BI-1950” (2021).

How the values were obtained:
[1] = molecular target: Activin receptor type-1B (Homo sapiens) (UniProt P36896); conditions: Compound concentration 1000.0 nM
[2] = molecular target: Cyclin-dependent kinase 9 (Homo sapiens) (UniProt P50750); conditions: Compound concentration 1000.0 nM
[3] = molecular target: Histamine H3 receptor (Homo sapiens) (UniProt Q9Y5N1); conditions: Compound concentration 10.0 uM
[4] = molecular target: Cyclin-dependent kinase-like 2 (Homo sapiens) (UniProt Q92772); conditions: Compound concentration 1000.0 nM
[5] = molecular target: Transient receptor potential cation channel subfamily M member 6 (Homo sapiens) (UniProt Q9BX84); conditions: Compound concentration 1000.0 nM
[6] = molecular target: STE20/SPS1-related proline-alanine-rich protein kinase (Homo sapiens) (UniProt Q9UEW8); conditions: Compound concentration 1000.0 nM
[7] = molecular target: Serine/threonine-protein kinase STK11 (Homo sapiens) (UniProt Q15831); conditions: Compound concentration 1000.0 nM
[8] = molecular target: Rhodopsin kinase GRK1 (Homo sapiens) (UniProt Q15835); conditions: Compound concentration 1000.0 nM
[9] = molecular target: Serine/threonine-protein kinase 38 (Homo sapiens) (UniProt Q15208); conditions: Compound concentration 1000.0 nM
[10] = test system: Phosphatidylinositol 4,5-bisphosphate 3-kinase catalytic subunit alpha isoform (Homo sapiens), P42336 [C420R]; conditions: Compound concentration 1000.0 nM
[11] = molecular target: Epidermal growth factor receptor (Homo sapiens) (UniProt P00533); conditions: Compound concentration 1000.0 nM
[12] = molecular target: Rho-associated protein kinase 1 (Homo sapiens) (UniProt Q13464); conditions: Compound concentration 1000.0 nM
[13] = test system: Mast/stem cell growth factor receptor Kit (Homo sapiens), P10721 [V559D,V654A]; conditions: Compound concentration 1000.0 nM
[14] = molecular target: Serine/threonine-protein kinase 32B (Homo sapiens) (UniProt Q9NY57); conditions: Compound concentration 1000.0 nM
[15] = molecular target: Serine/threonine-protein kinase Chk1 (Homo sapiens) (UniProt O14757); conditions: Compound concentration 1000.0 nM
[16] = molecular target: Serine/threonine-protein kinase TNNI3K (Homo sapiens) (UniProt Q59H18); conditions: Compound concentration 1000.0 nM
[17] = molecular target: Serine/threonine-protein kinase D2 (Homo sapiens) (UniProt Q9BZL6); conditions: Compound concentration 1000.0 nM
[18] = molecular target: Kappa-type opioid receptor (Homo sapiens) (UniProt P41145); conditions: Compound concentration 10.0 uM
[19] = molecular target: Serine/threonine-protein kinase pim-1 (Homo sapiens) (UniProt P11309); conditions: Compound concentration 1000.0 nM
[20] = molecular target: Ribosomal protein S6 kinase alpha-4 (Homo sapiens) (UniProt O75676); conditions: Compound concentration 1000.0 nM
[21] = molecular target: Activated CDC42 kinase 1 (Homo sapiens) (UniProt Q07912); conditions: Compound concentration 1000.0 nM
[22] = molecular target: Hormonally up-regulated neu tumor-associated kinase (Homo sapiens) (UniProt P57058); conditions: Compound concentration 1000.0 nM
[23] = molecular target: Serine/threonine-protein kinase N2 (Homo sapiens) (UniProt Q16513); conditions: Compound concentration 1000.0 nM
[24] = molecular target: Inhibitor of nuclear factor kappa-B kinase subunit beta (Homo sapiens) (UniProt O14920); conditions: Compound concentration 1000.0 nM
[25] = molecular target: Serine/threonine-protein kinase LATS2 (Homo sapiens) (UniProt Q9NRM7); conditions: Compound concentration 1000.0 nM
[26] = test system: Mast/stem cell growth factor receptor Kit (Homo sapiens), P10721 [D816H]; conditions: Compound concentration 1000.0 nM
[27] = molecular target: Serine/threonine-protein kinase B-raf (Homo sapiens) (UniProt P15056); conditions: Compound concentration 1000.0 nM
[28] = molecular target: Serine/threonine-protein kinase mTOR (Homo sapiens) (UniProt P42345); conditions: Compound concentration 1000.0 nM
[29] = molecular target: Serine/threonine-protein kinase PAK 6 (Homo sapiens) (UniProt Q9NQU5); conditions: Compound concentration 1000.0 nM
[30] = test system: Receptor-type tyrosine-protein kinase FLT3 (Homo sapiens), P36888 [K663Q]; conditions: Compound concentration 1000.0 nM
[31] = molecular target: Serine/threonine-protein kinase Sgk3 (Homo sapiens) (UniProt Q96BR1); conditions: Compound concentration 1000.0 nM
[32] = molecular target: Cyclin-dependent kinase 16 (Homo sapiens) (UniProt Q00536); conditions: Compound concentration 1000.0 nM
[33] = molecular target: 5-hydroxytryptamine receptor 1D (Homo sapiens) (UniProt P28221); conditions: Compound concentration 10.0 uM
[34] = molecular target: Mitogen-activated protein kinase kinase kinase kinase 5 (Homo sapiens) (UniProt Q9Y4K4); conditions: Compound concentration 1000.0 nM
[35] = molecular target: SRSF protein kinase 1 (Homo sapiens) (UniProt Q96SB4); conditions: Compound concentration 1000.0 nM
[36] = molecular target: Mast/stem cell growth factor receptor Kit (Homo sapiens) (UniProt P10721); conditions: Compound concentration 1000.0 nM
[37] = molecular target: Mitogen-activated protein kinase 3 (Homo sapiens) (UniProt P27361); conditions: Compound concentration 1000.0 nM
[38] = molecular target: Cyclin-dependent kinase 11A (Homo sapiens) (UniProt Q9UQ88); conditions: Compound concentration 1000.0 nM
[39] = molecular target: TGF-beta receptor type-1 (Homo sapiens) (UniProt P36897); conditions: Compound concentration 1000.0 nM
[40] = molecular target: Cyclin-dependent kinase 17 (Homo sapiens) (UniProt Q00537); conditions: Compound concentration 1000.0 nM
[41] = molecular target: Myosin light chain kinase (Homo sapiens) (UniProt Q32MK0); conditions: Compound concentration 1000.0 nM
[42] = test system: Epidermal growth factor receptor (Homo sapiens), P00533 [G719C]; conditions: Compound concentration 1000.0 nM
[43] = molecular target: Insulin receptor (Homo sapiens) (UniProt P06213); conditions: Compound concentration 1000.0 nM
[44] = molecular target: Cyclin-dependent kinase 2 (Homo sapiens) (UniProt P24941); conditions: Compound concentration 1000.0 nM
[45] = molecular target: Bone morphogenetic protein receptor type-2 (Homo sapiens) (UniProt Q13873); conditions: Compound concentration 1000.0 nM

Sequence of Mast/stem cell growth factor receptor Kit (Homo sapiens), P10721 [D816H] (P10721 whole entry D816H): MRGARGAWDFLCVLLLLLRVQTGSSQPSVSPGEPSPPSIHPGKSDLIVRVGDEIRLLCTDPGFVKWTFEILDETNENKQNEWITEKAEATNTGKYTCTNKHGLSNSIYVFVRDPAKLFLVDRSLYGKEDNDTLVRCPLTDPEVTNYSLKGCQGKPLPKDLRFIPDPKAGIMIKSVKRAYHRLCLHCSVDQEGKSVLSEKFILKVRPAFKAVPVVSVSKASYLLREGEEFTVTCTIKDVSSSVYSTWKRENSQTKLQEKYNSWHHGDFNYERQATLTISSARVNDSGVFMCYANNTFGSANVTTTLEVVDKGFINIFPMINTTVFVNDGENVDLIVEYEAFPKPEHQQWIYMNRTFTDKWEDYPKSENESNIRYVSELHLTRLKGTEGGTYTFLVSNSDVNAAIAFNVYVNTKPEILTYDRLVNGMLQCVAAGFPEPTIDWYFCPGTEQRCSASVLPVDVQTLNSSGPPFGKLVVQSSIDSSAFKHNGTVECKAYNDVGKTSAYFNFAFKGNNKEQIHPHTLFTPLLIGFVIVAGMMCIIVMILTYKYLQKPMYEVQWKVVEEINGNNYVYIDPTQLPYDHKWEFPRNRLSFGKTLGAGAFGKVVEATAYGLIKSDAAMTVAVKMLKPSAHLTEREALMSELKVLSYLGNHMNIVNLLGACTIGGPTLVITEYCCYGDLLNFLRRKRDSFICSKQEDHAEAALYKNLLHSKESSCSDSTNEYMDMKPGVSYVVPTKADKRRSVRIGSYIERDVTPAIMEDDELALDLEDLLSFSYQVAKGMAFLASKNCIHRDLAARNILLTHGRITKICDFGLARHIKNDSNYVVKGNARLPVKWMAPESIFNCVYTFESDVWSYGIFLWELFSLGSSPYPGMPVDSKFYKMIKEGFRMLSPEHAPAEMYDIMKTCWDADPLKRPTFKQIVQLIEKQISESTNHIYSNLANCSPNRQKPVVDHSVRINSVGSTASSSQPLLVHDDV
Sequence of Serine/threonine-protein kinase D2 (Homo sapiens) (Q9BZL6 whole entry): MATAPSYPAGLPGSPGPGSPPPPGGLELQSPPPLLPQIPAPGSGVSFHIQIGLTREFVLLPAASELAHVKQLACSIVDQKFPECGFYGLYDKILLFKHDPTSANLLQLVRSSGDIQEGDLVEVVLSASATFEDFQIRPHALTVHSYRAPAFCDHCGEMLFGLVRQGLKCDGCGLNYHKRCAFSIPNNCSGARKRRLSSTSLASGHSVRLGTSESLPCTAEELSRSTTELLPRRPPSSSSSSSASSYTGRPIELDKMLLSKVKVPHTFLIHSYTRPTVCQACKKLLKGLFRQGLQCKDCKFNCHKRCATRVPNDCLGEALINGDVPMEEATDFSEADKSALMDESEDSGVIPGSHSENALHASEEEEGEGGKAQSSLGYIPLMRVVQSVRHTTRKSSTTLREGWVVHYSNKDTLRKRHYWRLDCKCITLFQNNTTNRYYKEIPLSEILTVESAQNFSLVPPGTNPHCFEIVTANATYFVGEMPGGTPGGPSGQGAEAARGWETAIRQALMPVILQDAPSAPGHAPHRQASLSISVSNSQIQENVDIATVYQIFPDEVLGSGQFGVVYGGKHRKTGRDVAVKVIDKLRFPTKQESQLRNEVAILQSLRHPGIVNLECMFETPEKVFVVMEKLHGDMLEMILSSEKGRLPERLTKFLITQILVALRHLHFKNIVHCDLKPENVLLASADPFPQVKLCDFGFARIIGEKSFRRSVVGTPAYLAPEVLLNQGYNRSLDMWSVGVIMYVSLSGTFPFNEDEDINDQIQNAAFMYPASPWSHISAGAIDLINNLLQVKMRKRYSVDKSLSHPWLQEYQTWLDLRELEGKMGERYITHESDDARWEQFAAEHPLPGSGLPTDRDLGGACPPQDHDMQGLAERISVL
Sequence of Phosphatidylinositol 4,5-bisphosphate 3-kinase catalytic subunit alpha isoform (Homo sapiens), P42336 [C420R] (P42336 whole entry C420R, canonical isoform): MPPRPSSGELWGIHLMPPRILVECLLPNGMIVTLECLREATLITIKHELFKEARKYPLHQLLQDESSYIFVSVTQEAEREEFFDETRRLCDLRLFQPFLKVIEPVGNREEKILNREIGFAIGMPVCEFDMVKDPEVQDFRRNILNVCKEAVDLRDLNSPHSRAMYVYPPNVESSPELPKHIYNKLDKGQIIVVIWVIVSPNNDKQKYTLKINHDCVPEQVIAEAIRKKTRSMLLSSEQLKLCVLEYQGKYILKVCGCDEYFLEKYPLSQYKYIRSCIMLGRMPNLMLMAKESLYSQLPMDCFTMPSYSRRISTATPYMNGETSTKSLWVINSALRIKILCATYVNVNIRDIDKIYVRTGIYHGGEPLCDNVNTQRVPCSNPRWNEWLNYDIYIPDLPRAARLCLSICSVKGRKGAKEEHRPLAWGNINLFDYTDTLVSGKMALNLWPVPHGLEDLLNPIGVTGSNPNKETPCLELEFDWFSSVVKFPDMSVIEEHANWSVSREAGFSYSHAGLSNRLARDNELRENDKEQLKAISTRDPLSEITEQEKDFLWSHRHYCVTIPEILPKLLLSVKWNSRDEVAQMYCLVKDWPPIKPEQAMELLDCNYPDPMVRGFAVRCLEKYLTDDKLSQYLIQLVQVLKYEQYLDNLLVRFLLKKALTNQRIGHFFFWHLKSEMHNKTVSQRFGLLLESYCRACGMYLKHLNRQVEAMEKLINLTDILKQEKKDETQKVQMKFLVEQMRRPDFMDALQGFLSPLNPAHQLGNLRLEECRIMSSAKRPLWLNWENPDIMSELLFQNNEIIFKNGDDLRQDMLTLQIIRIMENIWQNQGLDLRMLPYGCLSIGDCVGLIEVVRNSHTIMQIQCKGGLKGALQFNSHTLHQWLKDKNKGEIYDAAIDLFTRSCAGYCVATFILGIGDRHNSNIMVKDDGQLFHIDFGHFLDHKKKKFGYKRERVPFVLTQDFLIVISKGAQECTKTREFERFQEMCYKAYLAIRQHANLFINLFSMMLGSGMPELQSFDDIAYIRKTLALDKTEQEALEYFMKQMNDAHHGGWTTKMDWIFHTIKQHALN
Sequence of Serine/threonine-protein kinase PAK 6 (Homo sapiens) (Q9NQU5 whole entry, looked up): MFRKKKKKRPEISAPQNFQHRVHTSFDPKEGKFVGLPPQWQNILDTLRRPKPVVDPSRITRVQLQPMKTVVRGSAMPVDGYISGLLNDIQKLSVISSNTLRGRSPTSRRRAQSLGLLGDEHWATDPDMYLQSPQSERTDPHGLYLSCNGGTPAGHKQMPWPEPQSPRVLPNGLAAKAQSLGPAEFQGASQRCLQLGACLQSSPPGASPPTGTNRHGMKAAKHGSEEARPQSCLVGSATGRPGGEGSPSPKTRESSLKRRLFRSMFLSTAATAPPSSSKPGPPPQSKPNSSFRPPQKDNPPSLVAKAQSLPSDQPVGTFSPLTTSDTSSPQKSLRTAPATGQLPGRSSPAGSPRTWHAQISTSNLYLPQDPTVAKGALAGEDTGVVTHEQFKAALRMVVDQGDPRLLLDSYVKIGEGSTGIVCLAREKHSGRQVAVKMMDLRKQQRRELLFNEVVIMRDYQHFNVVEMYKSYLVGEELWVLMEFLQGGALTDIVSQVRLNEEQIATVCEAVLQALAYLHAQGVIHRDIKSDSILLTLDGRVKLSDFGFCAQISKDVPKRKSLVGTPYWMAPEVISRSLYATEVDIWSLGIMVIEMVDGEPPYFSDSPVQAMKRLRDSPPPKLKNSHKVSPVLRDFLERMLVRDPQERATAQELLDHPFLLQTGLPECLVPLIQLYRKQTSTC
Sequence of Activated CDC42 kinase 1 (Homo sapiens) (Q07912 whole entry, looked up): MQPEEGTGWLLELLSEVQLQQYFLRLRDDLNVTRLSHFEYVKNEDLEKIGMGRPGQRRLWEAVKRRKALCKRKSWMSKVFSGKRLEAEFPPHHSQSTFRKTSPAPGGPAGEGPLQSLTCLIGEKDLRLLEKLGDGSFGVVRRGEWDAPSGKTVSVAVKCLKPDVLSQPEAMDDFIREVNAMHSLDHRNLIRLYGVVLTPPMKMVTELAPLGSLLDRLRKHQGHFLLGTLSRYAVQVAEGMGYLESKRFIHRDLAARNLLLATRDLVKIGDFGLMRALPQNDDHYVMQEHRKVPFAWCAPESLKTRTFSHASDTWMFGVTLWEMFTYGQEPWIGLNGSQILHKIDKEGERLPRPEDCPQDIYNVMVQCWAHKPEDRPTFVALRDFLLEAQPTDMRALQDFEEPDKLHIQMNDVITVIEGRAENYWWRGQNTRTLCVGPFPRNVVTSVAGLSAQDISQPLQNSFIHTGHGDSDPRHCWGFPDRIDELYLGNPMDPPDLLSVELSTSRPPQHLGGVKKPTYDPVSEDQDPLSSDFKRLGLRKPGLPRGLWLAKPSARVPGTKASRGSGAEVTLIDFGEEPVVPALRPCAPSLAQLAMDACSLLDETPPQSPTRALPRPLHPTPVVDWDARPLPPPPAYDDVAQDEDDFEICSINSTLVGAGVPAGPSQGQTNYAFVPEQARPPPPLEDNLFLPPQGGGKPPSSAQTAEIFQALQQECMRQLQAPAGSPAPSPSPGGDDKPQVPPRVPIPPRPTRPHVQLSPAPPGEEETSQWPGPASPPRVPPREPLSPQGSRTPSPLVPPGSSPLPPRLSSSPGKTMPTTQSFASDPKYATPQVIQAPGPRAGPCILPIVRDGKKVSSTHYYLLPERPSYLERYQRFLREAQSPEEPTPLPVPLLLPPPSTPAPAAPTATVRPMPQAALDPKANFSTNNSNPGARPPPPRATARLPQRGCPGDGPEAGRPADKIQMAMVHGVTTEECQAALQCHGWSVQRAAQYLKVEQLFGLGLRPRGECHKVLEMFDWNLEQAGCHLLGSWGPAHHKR
Sequence of Kappa-type opioid receptor (Homo sapiens) (P41145 whole entry): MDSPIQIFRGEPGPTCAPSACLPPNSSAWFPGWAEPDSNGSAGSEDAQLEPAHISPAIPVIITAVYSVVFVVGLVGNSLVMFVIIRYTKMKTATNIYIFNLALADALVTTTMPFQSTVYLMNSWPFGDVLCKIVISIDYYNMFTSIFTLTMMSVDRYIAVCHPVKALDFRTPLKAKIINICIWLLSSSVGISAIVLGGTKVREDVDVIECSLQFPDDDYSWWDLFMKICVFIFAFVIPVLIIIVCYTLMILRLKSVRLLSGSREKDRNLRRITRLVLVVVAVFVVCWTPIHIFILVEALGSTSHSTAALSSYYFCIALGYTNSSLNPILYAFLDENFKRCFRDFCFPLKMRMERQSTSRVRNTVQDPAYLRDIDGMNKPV
Sequence of Mast/stem cell growth factor receptor Kit (Homo sapiens), P10721 [V559D,V654A] (P10721 whole entry V559D/V654A): as the sequence (P10721 whole entry D816H) above, with V559D, V654A, H816D counted along it

C[C@H](NC(=O)c1cnc2n1[C@](C)(Cc1ccc(C#N)cc1)C(=O)N2c1cc(Cl)c(F)c(Cl)c1)C(=O)NC1(c2ccccn2)CC1 [BI 1950]
active: residual activity [6] 24%
inactive: residual activity [1] 99% | residual activity [2] 100% | inhibition [3] 1.43% | residual activity [4] 100% | residual activity [5] 100% | residual activity [7] 100% | residual activity [8] 100% | residual activity [9] 96% | residual activity [10] 93% | residual activity [11] 100% | residual activity [12] 100% | residual activity [13] 100% | residual activity [14] 80% | residual activity [15] 100% | residual activity [16] 65% | residual activity [17] 100% | inhibition [18] 9.67% | residual activity [19] 100% | residual activity [20] 92% | residual activity [21] 94% | residual activity [22] 100% | residual activity [23] 63% | residual activity [24] 90% | residual activity [25] 100% | residual activity [26] 100% | residual activity [27] 100% | residual activity [28] 96% | residual activity [29] 96% | residual activity [30] 100% | residual activity [31] 100% | residual activity [32] 100% | inhibition [33] 12% | residual activity [34] 94% | residual activity [35] 81% | residual activity [36] 100% | residual activity [37] 91% | residual activity [38] 100% | residual activity [39] 82% | residual activity [40] 100% | residual activity [41] 100% | residual activity [42] 100% | residual activity [43] 100% | residual activity [44] 100% | residual activity [45] 100%

C[C@@]1(Cc2ccc(C#N)cc2)C(=O)N(c2cc(Cl)cc(Cl)c2)c2ncc(C(=O)NC3(c4nc(C5CCC5)no4)CC3)n21 [BI 9446]
active: residual activity [5] 0%
inactive: residual activity [1] 100% | residual activity [2] 100% | inhibition [3] 20% | residual activity [4] 100% | residual activity [6] 91% | residual activity [7] 100% | residual activity [8] 100% | residual activity [9] 100% | residual activity [10] 89% | residual activity [11] 100% | residual activity [12] 100% | residual activity [13] 85% | residual activity [14] 100% | residual activity [15] 90% | residual activity [16] 72% | residual activity [17] 100% | inhibition [18] 12.6% | residual activity [19] 100% | residual activity [20] 100% | residual activity [21] 86% | residual activity [22] 100% | residual activity [23] 100% | residual activity [24] 100% | residual activity [25] 92% | residual activity [26] 100% | residual activity [27] 100% | residual activity [28] 91% | residual activity [29] 100% | residual activity [30] 100% | residual activity [31] 100% | residual activity [32] 97% | inhibition [33] 22.4% | residual activity [34] 93% | residual activity [35] 94% | residual activity [36] 100% | residual activity [37] 86% | residual activity [38] 100% | residual activity [39] 100% | residual activity [40] 100% | residual activity [41] 87% | residual activity [42] 100% | residual activity [43] 89% | residual activity [44] 100% | residual activity [45] 100%
